From US11098038B2, “Imidazole-based anticancer agents and derivatives thereof, and methods of making and using same” (The University of Toledo, priority 2017, dated 2021)

Legend:
Format in all cases: cell-based
[1] = tested on: NCI-H522; assay: NCI 60 screen, NCI-H522; conditions: Homo sapiens, Non-Small Cell Lung
Procedure: (§1) The compounds synthesized were tested at the National Cancer Institute (NCI) for anti-proliferative activity in the 60 human tumor cell line assay.

[2] = tested on: SK-OV-3; assay: NCI 60 screen, SK-OV-3; conditions: Homo sapiens, Ovarian
Procedure: as §1

[3] = tested on: UACC-257; assay: NCI 60 screen, UACC-257; conditions: Homo sapiens, Melanoma
Procedure: as §1

[4] = tested on: A498; assay: NCI 60 screen, A498; conditions: Homo sapiens, Renal
Procedure: as §1

[5] = tested on: CCRF-CEM; assay: NCI 60 screen, CCRF-CEM; conditions: Homo sapiens, Leukemia
Procedure: as §1

[6] = tested on: NCI-460; assay: NCI 60 screen, NCI-460; conditions: Homo sapiens, Non-Small Cell Lung
Procedure: as §1

[7] = tested on: HT29; assay: NCI 60 screen, HT29; conditions: Homo sapiens, HT-29, Colon
Procedure: as §1

[8] = tested on: SF-268; assay: NCI 60 screen, SF-268; conditions: Homo sapiens, CNS
Procedure: as §1

[9] = tested on: RXF393; assay: NCI 60 screen, RXF393; conditions: Homo sapiens, RXF 393, Renal
Procedure: as §1

[10] = tested on: OVCAR-5; assay: NCI 60 screen, OVCAR-5; conditions: Homo sapiens, Ovarian
Procedure: as §1

[11] = tested on: IGROV1; assay: NCI 60 screen, IGROV1; conditions: Homo sapiens, IGROV-1, Ovarian
Procedure: as §1

[12] = tested on: HCT-116; assay: NCI 60 screen, HCT-116; conditions: Homo sapiens, Colon
Procedure: as §1

[13] = tested on: HOP-92; assay: NCI 60 screen, HOP-92; conditions: Homo sapiens, Non-Small Cell Lung
Procedure: as §1

[14] = tested on: SF-539; assay: NCI 60 screen, SF-539; conditions: Homo sapiens, CNS
Procedure: as §1

[15] = tested on: DU-145; assay: NCI 60 screen, DU-145; conditions: Homo sapiens, Prostatic
Procedure: as §1

[16] = tested on: MDA-MB-435; assay: NCI 60 screen, MDA-MB-435; conditions: Homo sapiens, Melanoma
Procedure: as §1

[17] = tested on: NCI-H226; assay: NCI 60 screen, NCI-H226; conditions: Homo sapiens, Non-Small Cell Lung
Procedure: as §1

[18] = tested on: UO-31; assay: NCI 60 screen, UO-31; conditions: Homo sapiens, Renal
Procedure: as §1

[19] = tested on: SK-MEL-2; assay: NCI 60 screen, SK-MEL-2 (second line); conditions: Homo sapiens; Melanoma, SK-MEL-2 (second of two lines so named, r38)
Procedure: as §1

[20] = tested on: HS 578T; assay: NCI 60 screen, HS 578T; conditions: Homo sapiens, Breast
Procedure: as §1

[21] = tested on: KM12; assay: NCI 60 screen, KM12; conditions: Homo sapiens, Colon
Procedure: as §1

[22] = tested on: T-47D; assay: NCI 60 screen, T-47D; conditions: Homo sapiens, T47D, Breast
Procedure: as §1

[23] = tested on: NCI/ADR-RES; assay: NCI 60 screen, NCI/ADR-RES; conditions: Homo sapiens, Ovarian
Procedure: as §1

[24] = tested on: TK-10; assay: NCI 60 screen, TK-10; conditions: Homo sapiens, Renal
Procedure: as §1

[25] = tested on: HCT15; assay: NCI 60 screen, HCT15; conditions: Homo sapiens, HCT-15, Colon
Procedure: as §1

[26] = tested on: NCI-322M; assay: NCI 60 screen, NCI-322M; conditions: Homo sapiens, Non-Small Cell Lung
Procedure: as §1

[27] = tested on: K-562; assay: NCI 60 screen, K-562; conditions: Homo sapiens, K562, Leukemia
Procedure: as §1

[28] = tested on: EKVX; assay: NCI 60 screen, EKVX; conditions: Homo sapiens, Non-Small Cell Lung
Procedure: as §1

[29] = tested on: OVCAR-4; assay: NCI 60 screen, OVCAR-4; conditions: Homo sapiens, Ovarian
Procedure: as §1

[30] = tested on: BT-549; assay: NCI 60 screen, BT-549; conditions: Homo sapiens, Breast
Procedure: as §1

[31] = tested on: 786-0; assay: NCI 60 screen, 786-0; conditions: Homo sapiens, Renal
Procedure: as §1

[32] = tested on: HL-60(TB); assay: NCI 60 screen, HL-60(TB); conditions: Homo sapiens, Leukemia
Procedure: as §1

[33] = tested on: A549/ATCC; assay: NCI 60 screen, A549/ATCC; conditions: Homo sapiens, Non-Small Cell Lung
Procedure: as §1

[34] = tested on: MALME-3M; assay: NCI 60 screen, MALME-3M; conditions: Homo sapiens, Melanoma
Procedure: as §1

[35] = tested on: UACC-62; assay: NCI 60 screen, UACC-62; conditions: Homo sapiens, Melanoma
Procedure: as §1

[36] = tested on: HOP-62; assay: NCI 60 screen, HOP-62; conditions: Homo sapiens, Non-Small Cell Lung
Procedure: as §1

[37] = tested on: SNB-75; assay: NCI 60 screen, SNB-75; conditions: Homo sapiens, CNS
Procedure: as §1

[38] = tested on: MDA-MB-468; assay: NCI 60 screen, MDA-MB-468; conditions: Homo sapiens, Breast
Procedure: as §1

[39] = tested on: MCF7; assay: NCI 60 screen, MCF7; conditions: Homo sapiens, Breast
Procedure: as §1

[40] = tested on: SN12C; assay: NCI 60 screen, SN12C; conditions: Homo sapiens, Renal
Procedure: as §1

[41] = tested on: HCC-2998; assay: NCI 60 screen, HCC-2998; conditions: Homo sapiens, Colon
Procedure: as §1

[42] = tested on: M14; assay: NCI 60 screen, M14; conditions: Homo sapiens, Melanoma
Procedure: as §1

[43] = tested on: NCI-H23; assay: NCI 60 screen, NCI-H23; conditions: Homo sapiens, Non-Small Cell Lung
Procedure: as §1

[44] = tested on: MDA-MB-231/ATCC; assay: NCI 60 screen, MDA-MB-231/ATCC; conditions: Homo sapiens, Breast
Procedure: as §1

[45] = tested on: SR; assay: NCI 60 screen, SR; conditions: Homo sapiens, Leukemia
Procedure: as §1

[46] = tested on: SNB-19; assay: NCI 60 screen, SNB-19; conditions: Homo sapiens, CNS
Procedure: as §1

[47] = tested on: U251; assay: NCI 60 screen, U251; conditions: Homo sapiens, U-251, CNS
Procedure: as §1

[48] = tested on: SK-MEL-2; assay: NCI 60 screen, SK-MEL-2 (first line); conditions: Homo sapiens; Melanoma, SK-MEL-2 (first of two lines so named, r37)
Procedure: as §1

[49] = tested on: ACHN; assay: NCI 60 screen, ACHN; conditions: Homo sapiens, Renal
Procedure: as §1

[50] = tested on: MOLT-4; assay: NCI 60 screen, MOLT-4; conditions: Homo sapiens, Leukemia
Procedure: as §1

[51] = tested on: COLO 205; assay: NCI 60 screen, COLO 205; conditions: Homo sapiens, Colon
Procedure: as §1

[52] = tested on: SK-MEL-5; assay: NCI 60 screen, SK-MEL-5; conditions: Homo sapiens, Melanoma
Procedure: as §1

[53] = tested on: SF-295; assay: NCI 60 screen, SF-295; conditions: Homo sapiens, CNS
Procedure: as §1

[54] = tested on: LOX IMVI; assay: NCI 60 screen, LOX IMVI; conditions: Homo sapiens, Melanoma
Procedure: as §1

[55] = tested on: SW-620; assay: NCI 60 screen, SW-620; conditions: Homo sapiens, Colon
Procedure: as §1

[56] = tested on: PC-3; assay: NCI 60 screen, PC-3; conditions: Homo sapiens, Prostatic
Procedure: as §1

[57] = tested on: OVCAR-8; assay: NCI 60 screen, OVCAR-8; conditions: Homo sapiens, Ovarian
Procedure: as §1

[58] = tested on: OVCAR-3; assay: NCI 60 screen, OVCAR-3; conditions: Homo sapiens, Ovarian
Procedure: as §1

[59] = tested on: RPMI-8226; assay: NCI 60 screen, RPMI-8226; conditions: Homo sapiens, Leukemia
Procedure: as §1

O=C(Cc1ccc(/C=C/C(=O)c2ncc[nH]2)cc1)Nc1ccc(F)cc1 [Compound 22, (E)-2-(4-(3-(1H-imidazol-2-yl)-3-oxoprop-1-en-1-yl)phenyl)-N-(4-fluorophenyl)acetamide]
GI50 [1]: 3380 nM | GI50 [2]: 9380 nM | GI50 [3]: 8670 nM | GI50 [4]: 8930 nM | GI50 [5]: 1680 nM | GI50 [6]: 1720 nM | GI50 [7]: 1150 nM | GI50 [8]: 5100 nM | GI50 [9]: 3440 nM | GI50 [10]: 2600 nM | GI50 [11]: 2660 nM | GI50 [12]: 1890 nM | GI50 [13]: 9110 nM | GI50 [14]: 840 nM | GI50 [15]: 1190 nM | GI50 [16]: 4070 nM | GI50 [17]: 9850 nM | GI50 [18]: 2640 nM | GI50 [19]: 6260 nM | GI50 [20]: 2330 nM | GI50 [21]: 2100 nM | GI50 [22]: 3330 nM | GI50 [23]: 7180 nM | GI50 [24]: 7890 nM | GI50 [25]: 1150 nM | GI50 [26]: 3350 nM | GI50 [27]: 1300 nM | GI50 [28]: 7460 nM | GI50 [29]: 9140 nM | GI50 [30]: 2730 nM | GI50 [31]: 1370 nM | GI50 [32]: 1660 nM | GI50 [33]: 6940 nM | GI50 [34]: 7860 nM | GI50 [35]: 5920 nM | GI50 [36]: 2640 nM | GI50 [37]: 1110 nM | GI50 [38]: 970 nM | GI50 [39]: 990 nM | GI50 [40]: 2930 nM | GI50 [41]: 5430 nM | GI50 [42]: 5980 nM | GI50 [43]: 1910 nM | GI50 [44]: 1830 nM | GI50 [45]: 1110 nM | GI50 [46]: 1580 nM | GI50 [47]: 1200 nM | GI50 [48]: 7470 nM | GI50 [49]: 4820 nM | GI50 [50]: 5740 nM | GI50 [51]: 4540 nM | GI50 [52]: 6060 nM | GI50 [53]: 4740 nM | GI50 [54]: 1070 nM | GI50 [55]: 1430 nM | GI50 [56]: 2800 nM | GI50 [57]: 5080 nM | GI50 [58]: 1700 nM | GI50 [59]: 1270 nM
